According to ChEMBL document CHEMBL5352486, “Design, synthesis, in vitro - In vivo biological evaluation of novel thiazolopyrimidine compounds as antileishmanial agent with PTR1 inhibition” (Eur J Med Chem, 2023):
In brackets after ≈: the same amount, converted by molar mass. Activity calls are given as the source filed them. No cut-off for these calls is given here.

Experiments:
[1] = system: Leishmania infantum; test: Antileishmanial activity against Leishmania infantum infected in BALB/c mouse model of visceral leishmaniasis assessed as footpad lesion development at 50 mg/kg/day, IM administered for 21 days and measured after 3 weeks by Giemsa staining based analysis (reference value: 28.94 +/- 0.59); type: functional; details: time 21 day
[2] = system: Leishmania infantum; test: Antileishmanial activity against Leishmania infantum infected in BALB/c mouse model of cutaneous leishmaniasis assessed as footpad lesion development at 50 mg/kg/day, ID administered for 21 days and measured after 6 weeks by Giemsa staining based analysis (reference value: 2.40 +/- 0.03); type: functional; details: time 21 day
[3] = system: Leishmania tropica; test: Antileishmanial activity against Leishmania tropica MHOM/A7/1974/SAF-K27 incubated for 48 hrs by Neubauer hemocytometer analysis; type: functional, organism-based; details: MHOM/A7/1974/SAF-K27, 48 h
[4] = system: Leishmania infantum; test: Antileishmanial activity against Leishmania infantum infected in BALB/c mouse model of cutaneous leishmaniasis assessed as footpad lesion development at 50 mg/kg/day, ID administered for 21 days and measured after 20 weeks by Giemsa staining based analysis (reference value: 4.54 +/- 0.04); type: functional; details: time 21 day
[5] = system: Leishmania infantum; test: Antileishmanial activity against Leishmania infantum infected in BALB/c mouse model of cutaneous leishmaniasis assessed as footpad lesion development at 50 mg/kg/day, ID administered for 21 days and measured after 16 weeks by Giemsa staining based analysis (reference value: 4.20 +/- 0.03); type: functional; details: time 21 day
[6] = system: Leishmania infantum; test: Antileishmanial activity against Leishmania infantum infected in BALB/c mouse model of cutaneous leishmaniasis assessed as footpad lesion development at 50 mg/kg/day, ID administered for 21 days and measured after 24 weeks by Giemsa staining based analysis (reference value: 4.90 +/- 0.02); type: functional; details: time 21 day
[7] = system: Leishmania infantum; test: Antileishmanial activity against Leishmania infantum infected in BALB/c mouse model of cutaneous leishmaniasis assessed as footpad lesion development at 50 mg/kg/day, ID administered for 21 days and measured after 32 weeks by Giemsa staining based analysis (reference value: 4.91 +/- 0.01); type: functional; details: time 21 day
[8] = system: Leishmania infantum; test: Antileishmanial activity against Leishmania infantum MHOM/TN/1980/IPT1 incubated for 48 hrs by XTT method; type: functional, organism-based; details: MHOM/TN/1980/IPT1, 48 h
[9] = system: Leishmania infantum; test: Antileishmanial activity against Leishmania infantum infected in BALB/c mouse model of cutaneous leishmaniasis assessed as footpad lesion development at 50 mg/kg/day, ID administered for 21 days and measured after 8 weeks by Giemsa staining based analysis (reference value: 3.13 +/- 0.03); type: functional; details: time 21 day
[10] = (§1) Cytotoxicity against mouse RAW264.7 cells by alamar blue method; type: toxicity, cell-based; details: mouse, RAW264.7 cells
[11] = system: RAW264.7; test: as §1; type: toxicity, cell-based; details: raw264.7
[12] = system: Leishmania infantum; test: Antileishmanial activity against Leishmania infantum infected in BALB/c mouse model of cutaneous leishmaniasis assessed as footpad lesion development at 50 mg/kg/day, ID administered for 21 days and measured after 4 weeks by Giemsa staining based analysis (reference value: 1.90 +/- 0.03); type: functional; details: time 21 day
[13] = system: Leishmania infantum; test: Antileishmanial activity against Leishmania infantum infected in BALB/c mouse model of cutaneous leishmaniasis assessed as footpad lesion development at 50 mg/kg/day, ID administered for 21 days and measured after 28 weeks by Giemsa staining based analysis (reference value: 4.92 +/- 0.01); type: functional; details: time 21 day
[14] = system: Leishmania infantum; test: Antileishmanial activity against Leishmania infantum infected in BALB/c mouse model of visceral leishmaniasis assessed as footpad lesion development at 50 mg/kg/day, IM administered for 21 days and measured after 5 weeks by Giemsa staining based analysis (reference value: 27.04 +/- 0.65); type: functional; details: time 21 day
[15] = system: Leishmania infantum; test: Antileishmanial activity against Leishmania infantum infected in BALB/c mouse model of cutaneous leishmaniasis assessed as footpad lesion development at 50 mg/kg/day, ID administered for 21 days and measured after 30 weeks by Giemsa staining based analysis (reference value: 4.92 +/- 0.01); type: functional; details: time 21 day
[16] = system: Leishmania infantum; test: Antileishmanial activity against Leishmania infantum infected in BALB/c mouse model of visceral leishmaniasis assessed as footpad lesion development at 50 mg/kg/day, IM administered for 21 days and measured after 10 weeks by Giemsa staining based analysis (reference value: 21.58 +/- 0.74); type: functional; details: time 21 day
[17] = system: Leishmania infantum; test: Antileishmanial activity against Leishmania infantum infected in BALB/c mouse model of visceral leishmaniasis assessed as footpad lesion development at 50 mg/kg/day, IM administered for 21 days and measured after 7 weeks by Giemsa staining based analysis (reference value: 24.85 +/- 0.88); type: functional; details: time 21 day
[18] = system: Leishmania infantum; test: Antileishmanial activity against Leishmania infantum infected in BALB/c mouse model of cutaneous leishmaniasis assessed as parasite growth in spleen at 50 mg/kg/day, ID administered for 21 days; type: functional, organism-based; details: time 21.0 day
[19] = system: Leishmania infantum; test: Antileishmanial activity against Leishmania infantum infected in BALB/c mouse model of cutaneous leishmaniasis assessed as footpad lesion development at 50 mg/kg/day, ID administered for 21 days and measured after 10 weeks by Giemsa staining based analysis (reference value: 3.40 +/- 0.03); type: functional; details: time 21 day
[20] = system: DHFR (human) versus PTR1 (Leishmania major); test: Selectivity index, ratio of IC50 for human DHFR to IC50 for Leishmania major PTR1; type: toxicity; details: human DHFR enzyme and Leishmania major PTR1 enzyme, read-out: Ratio IC50
[21] = system: Leishmania infantum; test: Antileishmanial activity against Leishmania infantum infected in BALB/c mouse model of cutaneous leishmaniasis assessed as footpad lesion development at 50 mg/kg/day, ID administered for 21 days and measured after 22 weeks by Giemsa staining based analysis (reference value: 4.71 +/- 0.04); type: functional; details: time 21 day
[22] = system: Leishmania infantum; test: Antileishmanial activity against Leishmania infantum infected in BALB/c mouse model of cutaneous leishmaniasis assessed as footpad lesion development at 50 mg/kg/day, ID administered for 21 days and measured after 14 weeks by Giemsa staining based analysis (reference value: 3.88 +/- 0.03); type: functional; details: time 21 day
[23] = system: Leishmania infantum; test: Antileishmanial activity against Leishmania infantum infected in BALB/c mouse model of cutaneous leishmaniasis assessed as footpad lesion development at 50 mg/kg/day, ID administered for 21 days and measured after 12 weeks by Giemsa staining based analysis (reference value: 3.61 +/- 0.03); type: functional; details: time 21 day
[24] = system: Leishmania infantum; test: Antileishmanial activity against Leishmania infantum infected in BALB/c mouse model of visceral leishmaniasis assessed as parasite growth in spleen at 50 mg/kg/day, IM administered for 21 days; type: functional, organism-based; details: time 21.0 day
[25] = biological target: T1, Pteridine reductase 1 (Leishmania major, UniProt Q01782); test: Inhibition of recombinant Leishmania major PTR1 expressed in Escherichia coli BL21 using folic acid as substrate in presence of NADPH
T1 sequence (Q01782 whole entry): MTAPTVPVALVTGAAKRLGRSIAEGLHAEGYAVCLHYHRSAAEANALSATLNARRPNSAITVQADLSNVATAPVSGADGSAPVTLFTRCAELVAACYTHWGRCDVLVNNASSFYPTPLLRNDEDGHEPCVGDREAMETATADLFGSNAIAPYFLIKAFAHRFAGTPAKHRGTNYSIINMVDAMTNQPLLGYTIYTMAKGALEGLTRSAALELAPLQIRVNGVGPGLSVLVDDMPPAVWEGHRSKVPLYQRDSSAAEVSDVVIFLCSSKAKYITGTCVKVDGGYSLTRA

Compound | Activity [1] | Activity [2] | IC50 [3] [mg/L] | Activity [4] | Activity [5] | Activity [6] | Activity [7] | IC50 [8] [mg/L] | Activity [9] | IC50 [10] [mg/L] | log10 IC50 (µg/mL) [11] | Activity [12] | Activity [13] | Activity [14] | Activity [15] | Activity [16] | Activity [17] | Activity [18] | Activity [19] | selectivity ratio [20] | further results
CN(C)c1ncc2nc(NC(=O)c3ccc(Cl)c([N+](=O)[O-])c3)sc2n1 | 28.71 | 2.39 | 7.14 (≈ 18.8 µM) | 4.53 | 3.83 | 4.88 | 2.08 | 6.77 (≈ 17.9 µM) | 3.09 | 8.75 (≈ 23.1 µM) | 0.94 | 1.89 | 3.71 | 26.95 | 2.58 | 29.09 | 26.77 | Active | 3.37 | 7.02 | Activity [21]: 4.67; Activity [22]: 3.83; Activity [23]: 3.61; Activity [24]: Active; IC50 [25]: 680 µM
CN1CCN(c2ncc3nc(NC(=O)c4ccc(Cl)c(Cl)c4)sc3n2)CC1 | 28.73 | 2.41 | 7.71 (≈ 18.2 µM) | 4.53 | 4.21 | 4.89 | 4.73 | 8.28 (≈ 19.6 µM) | 3.1 | 16.4 (≈ 38.8 µM) | 1.22 | 1.88 | 4.83 | 26.63 | 4.78 | 21.12 | 24.43 | Active | 3.41 | 312 | Activity [21]: 4.69; Activity [22]: 3.89; Activity [23]: 3.61; Activity [24]: Active; IC50 [25]: 21.3 µM
CCOC(=O)N1CCN(c2ncc3nc(NC(=O)c4ccc(Cl)c(Cl)c4)sc3n2)CC1 | 28.71 | 2.4 | 0.039 (≈ 0.081 µM) | 4.52 | 4.2 | 4.9 | 2.42 | 0.042 (≈ 0.0873 µM) | 3.1 | 15 (≈ 31.2 µM) | 1.18 | 1.88 | 3.8 | 26.78 | 2.89 | 27.91 | 26.22 | Active | 3.39 | 42.6 | Activity [21]: 4.69; Activity [22]: 3.81; Activity [23]: 3.61; Activity [24]: inactive; IC50 [25]: 123 µM
